The source of these data is PMC12645998, “Optimization of VE607 to generate analogs with improved neutralization activities against SARS-CoV-2 variants” (Journal of Virology, 2025).

Data set [1] deals with pseudoviral particles bearing the Spike glycoprotein from SARS-CoV-2. Briefly: microbe, parasite or virus in culture. The class given is cell-based. Conditions: pseudovirus, 293T-ACE2 cells, compounds up to 100 µM.
The test system of data set [2] is pseudoviral particles carrying SARS-CoV-1 S. Nature of the data set: microbe, parasite or virus in culture. The class given is cell-based. Conditions: Severe acute respiratory syndrome coronavirus, 293T/ACE2, read-out: IC50 SARS-CoV-1.
For data set [3], the system named is pseudoviral particles carrying VSV-G. Briefly: microbe, parasite or virus in culture. The note with it: Vesicular stomatitis virus, 293T/ACE2, read-out: IC50 VSV-G. The class given is cell-based.
A short description of data set [4]: Solubility in phosphate-buffered saline.
Setting [5] is: Severe acute respiratory syndrome coronavirus 2, 293T/ACE2, read-out: IC50 SARS-CoV-2, Table 1.

Where two headings read alike, the source gives them in different places.

With `CN1CCN(C[C@@H](O)COc2cccc(Br)c2)CC1` [Compound 53], the IC50 in data set [1] (setting [5]), in data set [2] and in data set [3] was over 100 µM each time.
For `CCN(C)C[C@@H](O)COc1cccc(F)c1` [Compound 57], the IC50 (usually the concentration at which inhibition is half-maximal) was over 100 µM in data set [1] (setting [5]), 6.17 µM in data set [2] and over 100 µM in data set [3].
For `O[C@@H](COc1cccc(OC[C@H](O)CN2CCOCC2)c1)CN1CCOCC1` [Compound 16], the half-maximal inhibitory concentration (IC50) in data set [1] (setting [5]), in data set [2] and in data set [3] was over 100 µM each time.
For `CN(C)C[C@@H](O)COc1ccccc1` [Compound 45], the IC50 in data set [1] (setting [5]) was over 100 µM; in data set [2], 13.9 µM; in data set [3], over 100 µM.
`CN(C)C[C@@H](O)COc1cccc(OC[C@H](O)CN(C)C)c1` [Compound 15]: the half-maximal inhibitory concentration (IC50) in data set [1] (setting [5]) is 1.64 µM; in data set [2], 2.54 µM; in data set [3], 70.7 µM.
Consider `Cc1cccc(N2CCN(C[C@@H](O)COc3cc(Br)cc(OC[C@H](O)CN4CCN(c5cccc(C)c5)CC4)c3)CC2)c1` [Compound 31], for which, in data set [4], the “Solubility in phosphate-buffered saline (PBS)” value (shortened to “Solubility”) was “b Insoluble in phosphate-buffered saline (PBS)”.
With `CN1CCN(C[C@@H](O)COc2cccc(F)c2)CC1` [Compound 59], the IC50 in data set [1] (setting [5]), in data set [2] and in data set [3] was over 100 µM in each case.
Consider `CN1CCN(C[C@@H](O)COc2cccc(OC[C@H](O)CN3CCN(C)CC3)c2)CC1` [Compound 17], for which the concentration for half-maximal inhibition (IC50) is 1.76 µM in data set [1] (setting [5]), 19.9 µM in data set [2] and 74.9 µM in data set [3].
In the same order, the values of `O[C@@H](COc1cccc(OC[C@H](O)CN2CCC(O)(c3ccc(Cl)cc3)CC2)c1)CN1CCC(O)(c2ccc(Cl)cc2)CC1` [Compound 19] are 0.52 µM, 1.91 µM and 1.35 µM.
In the same order, the values of `O[C@H](CNC1CCOCC1)COc1cccc(OC[C@H](O)CNC2CCOCC2)c1` [Compound 24] are 0.38 µM, over 100 µM and 1.38 µM.
`O[C@@H](COc1cc(Br)cc(OC[C@H](O)CN2CCC(O)(c3ccc(Cl)cc3)CC2)c1)CN1CCC(O)(c2ccc(Cl)cc2)CC1` [Compound 32]: the “Solubility” value in data set [4] is listed as “b Insoluble in phosphate-buffered saline (PBS)”.
In the case of `CNC[C@@H](O)COc1ccccc1` [Compound 43], the IC50 in data set [1] (setting [5]) is over 100 µM; in data set [2], 62.6 µM; in data set [3], over 100 µM.
As for `CN(C)C[C@@H](O)COc1cccc(C(C)(C)C)c1` [Compound 62], the half-inhibitory concentration (IC50) was 84.7 µM in data set [1] (setting [5]), 0.934 µM in data set [2] and over 100 µM in data set [3].
In the same order, the values of `CC(C)CNC[C@@H](O)COc1cccc(C(C)(C)C)c1` [Compound 61] are over 100 µM, 73.7 µM and over 100 µM.
Regarding `O[C@H](CNCc1ccc(OC(F)(F)F)cc1)COc1cc(Br)cc(OC[C@H](O)CNCc2ccc(OC(F)(F)F)cc2)c1` [Compound 39], in data set [4], the “Solubility” value is “b Insoluble in phosphate-buffered saline (PBS)”.
As for `C=CCNC[C@@H](O)COc1cc(Br)cc(OC[C@H](O)CNCC=C)c1` [Compound 35], the half-maximal inhibitory concentration (IC50) in data set [1] (setting [5]) was found to be 0.7 µM; in data set [2], 0.62 µM; in data set [3], 26.4 µM.
In the same order, the values of `CCN(C)C[C@@H](O)COc1cccc(Br)c1` [Compound 52] are over 100 µM, 51.8 µM and over 100 µM.
`O[C@@H](COc1ccccc1)CN1CCCCC1` [Compound 42]: the results for the IC50 in data set [1] (setting [5]), in data set [2] and in data set [3] were 1.35 µM, 0.912 µM and over 100 µM, respectively.
Regarding `CCN(CC)C[C@@H](O)COc1ccccc1` [Compound 47], the half-maximal inhibitory concentration (IC50) in data set [1] (setting [5]), in data set [2] and in data set [3] was over 100 µM in each case.
As to `CC(C)CNC[C@@H](O)COc1cc(Br)cc(OC[C@H](O)CNCC(C)C)c1` [Compound 36], the values for the IC50 in data set [1] (setting [5]), in data set [2] and in data set [3] were 0.32 µM, 0.22 µM and 5.05 µM, respectively.
With `CN(C)C[C@@H](O)COc1cccc(Br)c1` [Compound 51], the IC50 is over 100 µM in data set [1] (setting [5]), 17.3 µM in data set [2] and over 100 µM in data set [3].
For the compound `CN1CCN(C[C@@H](O)COc2ccccc2)CC1` [Compound 48], the IC50 in data set [1] (setting [5]), in data set [2] and in data set [3] was over 100 µM in each case.
Take `CN1CCN(C[C@@H](O)COc2cccc(C(C)(C)C)c2)CC1` [Compound 65]: the IC50 in data set [1] (setting [5]) is 45.7 µM; in data set [2], 22 µM; in data set [3] it was over 100 µM.
In the same order, the values of `COc1ccc(CNC[C@@H](O)COc2cccc(OC[C@H](O)CNCc3ccc(OC)cc3)c2)cc1` [Compound 22] are 0.57 µM, 1.85 µM and 2.85 µM.
Regarding `O[C@H](CNCc1ccccc1OC(F)(F)F)COc1cccc(OC[C@H](O)CNCc2ccccc2OC(F)(F)F)c1` [Compound 23], the “Solubility” value in data set [4] is “b Insoluble in phosphate-buffered saline (PBS)”.
As to `CCN(CC)C[C@@H](O)COc1cccc(F)c1` [Compound 58], the IC50 in data set [1] (setting [5]), in data set [2] and in data set [3] was over 100 µM throughout.
Consider `CNC[C@@H](O)COc1cccc(Br)c1` [Compound 49], for which the IC50 in data set [1] (setting [5]), in data set [2] and in data set [3] was over 100 µM throughout.
For `CCN(CC)C[C@@H](O)COc1cccc(C(C)(C)C)c1` [Compound 64], the half-inhibitory concentration (IC50) was over 100 µM in data set [1] (setting [5]), 57.4 µM in data set [2] and over 100 µM in data set [3].
Turning to `O[C@@H](COc1cc(Br)cc(OC[C@H](O)CN2CCOCC2)c1)CN1CCOCC1` [Compound 29], the IC50 is 2.65 µM in data set [1] (setting [5]), 30.5 µM in data set [2] and over 100 µM in data set [3].
In the same order, the values of `CN(C)C[C@@H](O)COc1cccc(F)c1` [Compound 56] are over 100 µM, 19.5 µM and over 100 µM.
In the same order, the values of `CC(C)CNC[C@@H](O)COc1ccccc1` [Compound 44] are over 100 µM, 5.95 µM and over 100 µM.
In the case of `O[C@@H](COc1cc(Br)cc(OC[C@H](O)CN2CCCCC2)c1)CN1CCCCC1` [Compound 26], the half-inhibitory concentration (IC50) is 0.44 µM in data set [1] (setting [5]); 0.443 µM in data set [1] (read-out: IC50 SARS-CoV-2, Table 1); 0.381 µM in data set [2]; 2.39 µM in data set [3].
Take `COc1ccc(CNC[C@@H](O)COc2cc(Br)cc(OC[C@H](O)CNCc3ccc(OC)cc3)c2)cc1` [Compound 38]: the values for the IC50 in data set [1] (setting [5]), in data set [2] and in data set [3] were 1.03 µM, 0.66 µM and 4.09 µM, respectively.
For `CC(C)CNC[C@@H](O)COc1cccc(Br)c1` [Compound 50], the IC50 in data set [1] (setting [5]), in data set [2] and in data set [3] was over 100 µM throughout.
`O[C@H](CNCc1ccccc1)COc1cc(Br)cc(OC[C@H](O)CNCc2ccccc2)c1` [Compound 34]: the values for the IC50 in data set [1] (setting [5]), in data set [2] and in data set [3] were 0.49 µM, 0.34 µM and 4.71 µM, respectively.
Consider `CCN(C)C[C@@H](O)COc1cccc(C(C)(C)C)c1` [Compound 63], for which the IC50 in data set [1] (setting [5]) was over 100 µM; in data set [2] it was 4.66 µM; in data set [3], over 100 µM.
On to `O[C@H](CNC1CCOCC1)COc1cc(Br)cc(OC[C@H](O)CNC2CCOCC2)c1` [Compound 40], for which the half-maximal inhibitory concentration (IC50) in data set [1] (setting [5]) was 3.63 µM; in data set [2] it was 0.6 µM; in data set [3], over 100 µM.
In the same order, the values of `C=CCNC[C@@H](O)COc1cccc(OC[C@H](O)CNCC=C)c1` [Compound 21] are 47.9 µM, 41.1 µM and over 100 µM.
In the same order, the values of `CC(C)CNC[C@@H](O)COc1cccc(F)c1` [Compound 55] are over 100 µM, over 100 µM and over 100 µM.
For `CCN(C)C[C@@H](O)COc1cccc(OC[C@H](O)CN(C)CC)c1` [Compound 20], the IC50 in data set [1] (setting [5]) was 1.18 µM; in data set [2] it was 0.57 µM; in data set [3], over 100 µM.
In the same order, the values of `CNC[C@@H](O)COc1cccc(F)c1` [Compound 54] are over 100 µM, 55 µM and over 100 µM.
In the same order, the values of `CCN(CC)C[C@@H](O)COc1cc(Br)cc(OC[C@H](O)CN(CC)CC)c1` [Compound 28] are 1.79 µM, 17.5 µM and over 100 µM.
On to `CCN(C)C[C@@H](O)COc1ccccc1` [Compound 46], for which the IC50 in data set [1] (setting [5]), in data set [2] and in data set [3] was over 100 µM each time.
`CNC[C@@H](O)COc1cccc(C(C)(C)C)c1` [Compound 60]: the half-inhibitory concentration (IC50) in data set [1] (setting [5]) was over 100 µM; in data set [2], 45.5 µM; in data set [3], over 100 µM.
With `CNC[C@@H](O)COc1cc(Br)cc(OC[C@H](O)CNC)c1` [Compound 41], the IC50 is 1.17 µM in data set [1] (setting [5]), 0.31 µM in data set [2] and over 100 µM in data set [3].
In the same order, the values of `CNC[C@@H](O)COc1cccc(OC[C@H](O)CNC)c1` [Compound 25] are over 100 µM, 0.45 µM and 2.69 µM.
For `OC(COc1cccc(OCC(O)CN2CCCCC2)c1)CN1CCCCC1` (centres unmarked) [VE607], the IC50 in data set [1] (setting [5]) was 2.66 µM; in data set [2], 0.74 µM; in data set [3], over 100 µM.
In the same order, the values of `O[C@H](CNCc1ccncc1)COc1cc(Br)cc(OC[C@H](O)CNCc2ccncc2)c1` [Compound 37] are 1.37 µM, 1.29 µM and 3.89 µM.
